Results: PubChem BioAssay AID256 (DTP/NCI, 2004)
Values joined by “and” are separate entries in the source; they are usually repeats but may differ in a detail not shown here. Identical values can stand only once. Toxic doses and inconclusive results are not listed. How the source made its calls: active means survival T/C of 150% or more; inactive means T/C below 125% in these data.

Test system: CD2F1 mice, L1210 leukemia ip, survival T/C
Test: NCI In Vivo Anticancer Drug Screen. Data for tumor model L1210 Leukemia (intraperitoneal) in CD2F1 (CDF1) mice
Conditions: endpoint: mean survival time, higher = longer survival
How it was run: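 Compound-dosed mice with transplantable tumor versus matched vehicle controls; endpoint ratio T/C reported.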

[1] = dose: 100.0 mg/kg/injection, schedule: Q04DX003 (ip), vehicle: saline with Tween-80
[2] = dose: 200.0 mg/kg/injection, schedule: Q04DX003 (ip), vehicle: saline with Tween-80
[3] = dose: 400.0 mg/kg/injection, schedule: Q04DX003 (ip), vehicle: saline with Tween-80
[4] = dose: 12.5 mg/kg/injection, schedule: Q01DX009 (ip), vehicle: saline
[5] = dose: 25.0 mg/kg/injection, schedule: Q01DX009 (ip), vehicle: saline
[6] = dose: 50.0 mg/kg/injection, schedule: Q01DX009 (ip), vehicle: saline
[7] = dose: 3.13 mg/kg/injection, schedule: Q01DX009 (ip), vehicle: other
[8] = dose: 6.25 mg/kg/injection, schedule: Q01DX009 (ip), vehicle: other
[9] = dose: 12.5 mg/kg/injection, schedule: Q01DX009 (ip), vehicle: other
[10] = dose: 25.0 mg/kg/injection, schedule: Q01DX009 (ip), vehicle: other
[11] = dose: 100.0 mg/kg/injection, schedule: Q01DX009 (ip), vehicle: saline with Tween-80
[12] = dose: 200.0 mg/kg/injection, schedule: Q01DX009 (ip), vehicle: saline with Tween-80
[13] = dose: 50.0 mg/kg/injection, schedule: Q01DX001 (ip), vehicle: saline
[14] = dose: 100.0 mg/kg/injection, schedule: Q01DX009 (ip), vehicle: saline

Measured: T/C

CC(CC(=O)O)c1ccc(Cl)cc1 (configuration not stated)
inactive: [1] 101 % of control | [2] 101 % of control | [3] 101 % of control

C1CCc2nnnn2CC1
inactive: [4] 98 % of control | [5] 103 % of control | [6] 95 % of control

CCCCCCCCCCCCSC1=CC(=O)C(OC)=C(OC)C1=O
inactive: dose: 0.78 mg/kg/injection, schedule: Q01DX009 (ip), vehicle: other 95 % of control | dose: 1.56 mg/kg/injection, schedule: Q01DX009 (ip), vehicle: other 95 % of control | [7] 97 % of control | [8] 97 % of control | [9] 95 % of control | [10] 94 % of control

Cc1ccc(NC(=O)OCCOc2ccc([N+](=O)[O-])cc2)c(C)c1
inactive: dose: 50.0 mg/kg/injection, schedule: Q01DX009 (ip), vehicle: saline with Tween-80 93 % of control | [11] 98 % of control | [12] 89 % of control

O=c1[nH]c2ccccc2c2ccccc2[nH]c(=O)c2ccccc12
inactive: dose: 100.0 mg/kg/injection, schedule: Q01DX001 (ip), vehicle: Klucel (hydroxypropylcellulose) (HPC) 98 % of control | dose: 200.0 mg/kg/injection, schedule: Q01DX001 (ip), vehicle: Klucel (hydroxypropylcellulose) (HPC) 102 % of control | dose: 400.0 mg/kg/injection, schedule: Q01DX001 (ip), vehicle: Klucel (hydroxypropylcellulose) (HPC) 102 % of control

O=c1cc(-c2ccc3c(c2)OCO3)oc2ccccc12
inactive: [13] 102 % of control | dose: 100.0 mg/kg/injection, schedule: Q01DX001 (ip), vehicle: saline 98 % of control | dose: 200.0 mg/kg/injection, schedule: Q01DX001 (ip), vehicle: saline 98 % of control | dose: 400.0 mg/kg/injection, schedule: Q01DX001 (ip), vehicle: saline 92 % of control

CCCCCCCCn1nnnc1N
inactive: dose: 12.5 mg/kg/injection, schedule: Q01DX001 (ip), vehicle: Klucel (hydroxypropylcellulose) (HPC) 112 % of control | dose: 25.0 mg/kg/injection, schedule: Q01DX001 (ip), vehicle: Klucel (hydroxypropylcellulose) (HPC) 97 % of control | dose: 50.0 mg/kg/injection, schedule: Q01DX001 (ip), vehicle: Klucel (hydroxypropylcellulose) (HPC) 104 % of control

CC(C)C(C#[N+][O-])C(C)C
inactive: dose: 75.0 mg/kg/injection, schedule: Q01DX001 (ip), vehicle: other 108 % of control | dose: 150.0 mg/kg/injection, schedule: Q01DX001 (ip), vehicle: other 105 % of control | dose: 300.0 mg/kg/injection, schedule: Q01DX001 (ip), vehicle: other 96 % of control

O=C(O)C(CNC(=O)C(F)(F)F)Cc1ccc([N+](=O)[O-])cc1 (configuration not stated)
inactive: [4] 98 % of control and 101 % of control | [5] 98 % of control | [6] 97 % of control and 107 % of control | [14] 103 % of control

CC1CCC(C)C([N+](C)(C)C)C1 (configuration not stated)
inactive: dose: 12.5 mg/kg/injection, schedule: Q01DX001 (ip), vehicle: saline 102 % of control | dose: 25.0 mg/kg/injection, schedule: Q01DX001 (ip), vehicle: saline 110 % of control | [13] 100 % of control

CCCCCCCC(=O)Nc1ncnc2c1ncn2C1OC(COC(C)=O)C(OC(C)=O)C1OC(C)=O (configuration not stated)
inactive: dose: 12.5 mg/kg/injection, schedule: Q01DX005 (ip), vehicle: distilled water + Tween-80 98 % of control | dose: 25.0 mg/kg/injection, schedule: Q01DX005 (ip), vehicle: distilled water + Tween-80 91 % of control | dose: 50.0 mg/kg/injection, schedule: Q01DX005 (ip), vehicle: distilled water + Tween-80 98 % of control | dose: 100.0 mg/kg/injection, schedule: Q01DX005 (ip), vehicle: distilled water + Tween-80 94 % of control

C=C(C)C12CC(COC(=O)c3ccccc3)C34OC5(OC1C3C1OC1(CO)C(O)C1(O)C(OC(=O)c3ccccc3)C(C)C(C(C)CCCCCCC5O)C14)O2 (configuration not stated)
inactive: dose: 1.5 micrograms/kg/injection, schedule: Q01DX009 (ip), vehicle: saline 103 % of control | dose: 3.1 micrograms/kg/injection, schedule: Q01DX009 (ip), vehicle: saline 98 % of control | dose: 6.2 micrograms/kg/injection, schedule: Q01DX009 (ip), vehicle: saline 97 % of control | dose: 12.5 micrograms/kg/injection, schedule: Q01DX009 (ip), vehicle: saline 98 % of control

O=C(O)c1ccccc1C(=O)NCCc1c[nH]c2ccccc12
inactive: [11] 104 % of control | [1] 96 % of control | [12] 96 % of control | [2] 96 % of control | dose: 400.0 mg/kg/injection, schedule: Q01DX009 (ip), vehicle: saline with Tween-80 102 % of control | [3] 95 % of control

O=P(Nc1ccccc1)(OCc1ccccc1)N(CCCl)CCCl (configuration not stated)
inactive: dose: 62.5 mg/kg/injection, schedule: Q01DX010 (ip), vehicle: saline 104 % of control | dose: 125.0 mg/kg/injection, schedule: Q01DX010 (ip), vehicle: saline 103 % of control | dose: 250.0 mg/kg/injection, schedule: Q01DX010 (ip), vehicle: saline 101 % of control

CC(C)=NO
inactive: [1] 109 % of control | [2] 90 % of control

CCCCCCCCCCCCCC(=O)N(C)C
inactive: [6] 92 % of control | [14] 98 % of control | [1] 95 % of control | dose: 200.0 mg/kg/injection, schedule: Q01DX009 (ip), vehicle: saline 95 % of control | [2] 103 % of control

O=C(/C(Br)=C/c1ccccc1)c1ccccc1
inactive: dose: 100.0 mg/kg/injection, schedule: Q04DX003 (ip), vehicle: other 103 % of control | dose: 200.0 mg/kg/injection, schedule: Q04DX003 (ip), vehicle: other 105 % of control

Cc1cc(-c2nnc(-c3ccc(O)c(C)c3)nn2)ccc1O
inactive: [1] 97 % of control | [2] 89 % of control | [3] 92 % of control

COc1cc2c[n+](C)c3c4cc5c(cc4ccc3c2cc1OC)OCO5 (tested in a mixture with another compound)
inactive: [7] 118 % of control and 112 % of control | dose: 5.0 mg/kg/injection, schedule: Q01DX009 (ip), vehicle: saline 119 % of control | dose: 6.25 mg/kg/injection, schedule: Q01DX009 (ip), vehicle: Klucel (hydroxypropylcellulose) (HPC) 112 % of control | [8] 117 % of control and 112 % of control | dose: 12.5 mg/kg/injection, schedule: Q01DX009 (ip), vehicle: Klucel (hydroxypropylcellulose) (HPC) 124 % of control | [9] 113 % of control and 118 % of control | [10] 113 % of control and 116 % of control | dose: 50.0 mg/kg/injection, schedule: Q01DX009 (ip), vehicle: Klucel (hydroxypropylcellulose) (HPC) 112 % of control
